Measured values: patent US10433548B2, “Biocidal compositions comprising iron chelators” (Arch Chemicals, Inc., priority 2012, dated 2019)
Converted amounts (≈) assume the structure as drawn. Read-outs that look alike come from different tables or passages of the source.

Assays:
Assay in all cases: Minimum Inhibitory Concentration (MIC) test, 96-well microtiter plate
Format in all cases: cell-based
[1] = test system: C. pyrenoidosa; set-up: unit not given here
[2] = test system: R. subcapitata; set-up: unit not given here
[3] = test system: P. faveolarum; set-up: unit not given here
Protocol: (§1) Activities of antimicrobial compositions of the present invention were tested against a range of typical skin microorganisms in a Minimum Inhibitory Concentration (MIC) test. MICs for the organisms were determined in a standard 96-well microtiter plate assay in Brain Heart Infusion Broth (BHI) for P. acnes; Tryptic Soy Broth (TSB) for the remaining bacteria; Ushijima Broth for M. furfur; Sabouraud Dextrose Broth (SDB) for other fungi. Samples were tested in duplicate on separate plates. For bacteria and fungi plates, samples were serially diluted into double strength media on the microtiter plates. The bacterial or fungal inocula, suspended in sterile deionized water, were then added to the wells in 1:1 ratio to the medium. The final concentration of bacteria in the wells was 5×10^5 CFUs/mL, the final concentration of fungi was 5×10^4 cells or spores/mL. Plates were incubated: anaerobically at 35° C. for 7 days for P. acnes; aerobically at 35° C. for 2 days for the remaining bacteria and aerobically at 35° C. for 7 days for M. furfur; aerobically at 28° C. for 7 days for T. mentagrophytes.

[4] = test system: P. aeruginosa; set-up: unit not given here
Protocol: as §1

[5] = test system: B. subtilis; set-up: unit not given here
Protocol: as §1

[6] = test system: A. pullulans; set-up: unit not given here
Protocol: as §1

[7] = test system: A. brasiliensis; set-up: unit not given here
Protocol: as §1

[8] = test system: P. acnes; conditions: for MIC: Cutibacterium acnes
Protocol: as §1

[9] = test system: E. hirae; set-up: unit not given here
Protocol: as §1

[10] = test system: S. aureus; set-up: unit not given here
Protocol: as §1

[11] = test system: C. albicans; set-up: unit not given here
Protocol: as §1

[12] = concentration of BBIT, BBIT alone or with potentiator, Molar Eq (Pot:BBIT) 10:1
[13] = concentration of BIT, BIT alone or with potentiator, Molar Eq (Pot:BIT) 10:1
[14] = concentration of Propiconazole, alone or with potentiator, Molar Eq (Pot:PROP) 10:1
[15] = concentration of IPBC, IPBC alone or with potentiator, Molar Eq (Pot:IPBC) 10:1

| Molecule | MIC C. pyrenoidsa [1, 12] | MIC R. subcapitata [2, 12] | MIC P. faveolarum [3, 12] | MIC P. aeruginosa [4, 12] | MIC B. subtilis [5, 12] | MIC A. pullulans [6, 12] | MIC A. brasiliensis [7, 12] | MIC C. pyrenoidsa [1, 13] | MIC R. subcapitata [2, 13] | MIC P. faveolarum [3, 13] | MIC P. aeruginosa [4, 13] | MIC B. subtilis [5, 13] | MIC A. pullulans [6, 13] | MIC A. brasiliensis [7, 13] | also measured |
| --- | --- | --- | --- | --- | --- | --- | --- | --- | --- | --- | --- | --- | --- | --- | --- |
| CCCCn1sc2ccccc2c1=O [BBIT, butylbenzisothiazolinone] | 1.25-2.5 | 1.25-15 | 1.25-5 | 80.00 | 1.88-2.5 | 2.5-5 | 1.25-5 | – | – | – | – | – | – | – | – |
| O=c1[nH]sc2ccccc12 [BIT, benzisothiazolinone] | – | – | – | – | – | – | – | 4.06-8 | 8.13 | 4.06-16 | 32.50 | 1.02-4 | 4.06-8 | 16-32.5 | – |
| O=C(OOC(=O)c1ccccc1)c1ccccc1 [Benzoyl Peroxide, benzoyl peroxide] | – | – | – | – | – | – | – | – | – | – | – | – | – | – | MIC ([8]; Benzoyl Peroxide without chelator or with chelator, Molar Eq. HBED 10×, 8-HQ 5×, DTPA 10×, Desferrioxamine 1×, read-out: MIC values against P. acnes, Benzoyl Peroxide): 200 µg/mL (≈ 826 µM) |
| O=C(O)CN(CCN(CC(=O)O)CC(=O)O)CCN(CC(=O)O)CC(=O)O [DTPA, diethylenetriaminepentaacetic acid] | 1.25 | 0.94 | 0.16 | 20.00 | 2.50 | 0.63 | 1.25 | 0.51 | 0.51 | <0.06 | 8.13 | 2.03 | 2.03 | 16.25 | MIC values against P. acnes, Benzoyl Peroxide ([8]; Benzoyl Peroxide without chelator or with chelator, Molar Eq. HBED 10×, 8-HQ 5×, DTPA 10×, Desferrioxamine 1×): 6.25 ppm; MIC values against P. acnes, Salicylic Acid ([8]; Salicylic Acid without chelator or with chelator, Molar Eq. HBED 10×, 8-HQ 5×, DTPA 10×, Desferrioxamine 1×): 3.13 ppm |
| CC(=O)N(O)CCCCCNC(=O)CCC(=O)N(O)CCCCCNC(=O)CCC(=O)N(O)CCCCCN [Desferrioxamine, desferrioxamine] | – | – | – | – | – | – | – | – | – | – | – | – | – | – | MIC ([8]; read-out: MIC values against P. acnes, Benzoyl Peroxide): 25 µg/mL (≈ 44.6 µM); MIC ([8]; read-out: MIC values against P. acnes, Salicylic Acid): 25 µg/mL (≈ 44.6 µM) |
| CCCC1COC(Cn2cncn2)(c2ccc(Cl)cc2Cl)O1 (centres unmarked) [Propiconazole, propiconazole] | – | – | – | – | – | – | – | – | – | – | – | – | – | – | MIC C. pyrenoidsa [1, 14]: 20.63-82.5; MIC R. subcapitata [2, 14]: 20.63-41.25; MIC P. faveolarum [3, 14]: 20.63-41.25; MIC P. aeruginosa [4, 14]: 165.00; MIC E. hirae [9, 14]: 165.00; MIC S. aureus [10, 14]: 82.5-165.00; MIC C. albicans [11, 14]: 41.25-100.00 |
| O=C(O)c1ccccc1O [Salicylic Acid, salicylic acid] | – | – | – | – | – | – | – | – | – | – | – | – | – | – | MIC ([8]; Salicylic Acid without chelator or with chelator, Molar Eq. HBED 10×, 8-HQ 5×, DTPA 10×, Desferrioxamine 1×, read-out: MIC values against P. acnes, Salicylic Acid): 100 µg/mL (≈ 724 µM) |
| O=C(CC(=O)C(F)(F)F)c1cccs1.[Zn] [Then-Zn, thenoyl trifluoro acetone zinc salt] | – | – | – | – | – | – | – | 2.03 | 1.02 | 0.13 | 32.50 | 1.52 | 4.06 | 32.50 | MIC C. pyrenoidsa [1, 15]: 0.38; MIC R. subcapitata [2, 15]: 1.02; MIC P. faveolarum [3, 15]: 0.51; MIC P. aeruginosa [4, 15]: 65.0; MIC E. hirae [9, 15]: 8.13; MIC S. aureus [10, 15]: 13.25; MIC C. albicans [11, 15]: 2.03; MIC B. subtilis [5, 15]: 4.06 |
| glucoheptanoic acid zinc salt [Gluco-heptanoate-Zn] | 1.25 | 1.88 | 0.16 | 80.00 | 1.25 | 5.00 | 2.50 | – | – | – | – | – | – | – | MIC C. pyrenoidsa [1, 14]: 15.47; MIC R. subcapitata [2, 14]: 0.97; MIC P. faveolarum [3, 14]: 1.93; MIC P. aeruginosa [4, 14]: 165.00; MIC E. hirae [9, 14]: 20.63; MIC S. aureus [10, 14]: 41.25; MIC C. albicans [11, 14]: 82.50; MIC B. subtilis [5, 14]: 20.63 |
